According to PubChem BioAssay (NCI):
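All cell lines were grown in 96-well plates and treated with compound for 48 hours. GI50 = concentration required for 50% inhibition of growth. The concentration for full growth arrest is given as TGI.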

Legend:
Test in all cases: NCI anticancer screen, dose series, 48 h; in the data active means GI50 below about 0.43 µM; inactive means the rest
NCI-H226 lung = system: NCI-H226 lung
786-0 renal = system: 786-0 renal
UACC-62 melanoma = system: UACC-62 melanoma
SK-MEL-28 melanoma = system: SK-MEL-28 melanoma
PC-3 prostate = system: PC-3 prostate
MDA-MB-231 breast = system: MDA-MB-231 breast
OVCAR-4 ovarian = system: OVCAR-4 ovarian
MALME-3M melanoma = system: MALME-3M melanoma
SF-295 CNS = system: SF-295 CNS
UO-31 renal = system: UO-31 renal
HL-60(TB) leukemia = system: HL-60(TB) leukemia
MDA-MB-435 = system: MDA-MB-435
A549 NSCLC = system: A549 NSCLC
HCT-116 colon = system: HCT-116 colon
MOLT-4 leukemia = system: MOLT-4 leukemia
CCRF-CEM leukemia = system: CCRF-CEM leukemia
RXF 393 renal = system: RXF 393 renal
HOP-62 NSCLC = system: HOP-62 NSCLC
HOP-92 NSCLC = system: HOP-92 NSCLC
SN12C renal = system: SN12C renal
COLO 205 colon = system: COLO 205 colon
OVCAR-3 ovarian = system: OVCAR-3 ovarian
M14 melanoma = system: M14 melanoma
IGROV1 ovarian = system: IGROV1 ovarian
KM12 colon = system: KM12 colon
SNB-75 CNS = system: SNB-75 CNS
HS 578T breast = system: HS 578T breast
SK-MEL-5 melanoma = system: SK-MEL-5 melanoma
NCI-H23 lung = system: NCI-H23 lung
T-47D breast = system: T-47D breast
LOX IMVI melanoma = system: LOX IMVI melanoma
SNB-19 CNS = system: SNB-19 CNS
OVCAR-5 ovarian = system: OVCAR-5 ovarian
RPMI-8226 leukemia = system: RPMI-8226 leukemia
A498 renal = system: A498 renal
NCI/ADR-RES ovarian = system: NCI/ADR-RES ovarian
SR leukemia = system: SR leukemia
OVCAR-8 ovarian = system: OVCAR-8 ovarian
HCT-15 colon = system: HCT-15 colon
SF-268 CNS = system: SF-268 CNS
MCF7 breast = system: MCF7 breast
CAKI-1 renal = system: CAKI-1 renal
HCC-2998 colon = system: HCC-2998 colon
TK-10 renal = system: TK-10 renal
DU-145 prostate = system: DU-145 prostate
SK-OV-3 ovarian = system: SK-OV-3 ovarian
SF-539 CNS = system: SF-539 CNS
U251 CNS = system: U251 CNS
HT29 colon = system: HT29 colon
K-562 leukemia = system: K-562 leukemia
BT-549 breast = system: BT-549 breast
ACHN renal = system: ACHN renal
NCI-H460 lung = system: NCI-H460 lung
SW-620 colon = system: SW-620 colon
NCI-H522 lung = system: NCI-H522 lung
SK-MEL-2 melanoma = system: SK-MEL-2 melanoma

N#Cc1c(N)c(C(=O)c2ccc3c(c2)OCCO3)n2c1CCCC2
> 28.3 µM: TGI (OVCAR-3 ovarian)
8.03 µM: TGI (A498 renal)
17.9 µM: TGI (RXF 393 renal)
7.63 µM: TGI (SF-539 CNS)
> 38.3 µM: TGI (SK-OV-3 ovarian)
7.48 µM: TGI (SNB-75 CNS)
> 52.5 µM: TGI (NCI/ADR-RES ovarian)
inactive: GI50 (NCI-H226 lung) > 100 µM | GI50 (786-0 renal) 5.31 µM | GI50 (UACC-62 melanoma) 5.99 µM | GI50 (SK-MEL-28 melanoma) 4.5 µM | GI50 (PC-3 prostate) 4.32 µM | GI50 (MDA-MB-231 breast) 6.47 µM | GI50 (OVCAR-4 ovarian) > 69.1 µM | GI50 (MALME-3M melanoma) 2.6 µM | GI50 (SF-295 CNS) 2.69 µM | GI50 (UO-31 renal) 6.3 µM | GI50 (HL-60(TB) leukemia) 2.8 µM | GI50 (A549 NSCLC) 4.27 µM | GI50 (HCT-116 colon) 3.55 µM | GI50 (MOLT-4 leukemia) 4.19 µM | GI50 (CCRF-CEM leukemia) 3.15 µM | GI50 (RXF 393 renal) 2.29 µM | GI50 (HOP-62 NSCLC) 3.48 µM | GI50 (HOP-92 NSCLC) 2.33 µM | GI50 (SN12C renal) 6.13 µM | GI50 (COLO 205 colon) 1.82 µM | GI50 (OVCAR-3 ovarian) 2.88 µM | GI50 (M14 melanoma) 2.08 µM | GI50 (IGROV1 ovarian) 6.92 µM | GI50 (KM12 colon) 1.37 µM | GI50 (SNB-75 CNS) 1.8 µM | GI50 (HS 578T breast) 3.08 µM | GI50 (SK-MEL-5 melanoma) 3.32 µM | GI50 (NCI-H23 lung) 4.64 µM | GI50 (T-47D breast) 4.38 µM | GI50 (LOX IMVI melanoma) 6.92 µM | GI50 (SNB-19 CNS) 6.3 µM | GI50 (OVCAR-5 ovarian) 8.82 µM | GI50 (RPMI-8226 leukemia) 3.93 µM | GI50 (A498 renal) 1.79 µM | GI50 (NCI/ADR-RES ovarian) 1.12 µM | GI50 (SR leukemia) 0.869 µM | GI50 (OVCAR-8 ovarian) 4.21 µM | GI50 (HCT-15 colon) 1.04 µM | GI50 (SF-268 CNS) 7.46 µM | GI50 (MCF7 breast) 2.28 µM | GI50 (CAKI-1 renal) 3.18 µM | GI50 (HCC-2998 colon) 4.1 µM | GI50 (TK-10 renal) > 28.5 µM | GI50 (DU-145 prostate) 4.45 µM | GI50 (SK-OV-3 ovarian) 5.47 µM | GI50 (SF-539 CNS) 2.38 µM | GI50 (U251 CNS) 4.07 µM | GI50 (HT29 colon) 2.23 µM | GI50 (K-562 leukemia) 0.638 µM | GI50 (BT-549 breast) 4.8 µM | GI50 (ACHN renal) 7.42 µM | GI50 (NCI-H460 lung) 3.19 µM | GI50 (SW-620 colon) 2.07 µM | GI50 (NCI-H522 lung) 0.58 µM | GI50 (SK-MEL-2 melanoma) 4.06 µM
> 27 µM: TGI (HL-60(TB) leukemia)
> 100 µM: TGI (NCI-H226 lung) | TGI (786-0 renal) | TGI (UACC-62 melanoma) | TGI (SK-MEL-28 melanoma) | TGI (PC-3 prostate) | TGI (MDA-MB-231 breast) | TGI (OVCAR-4 ovarian) | TGI (MALME-3M melanoma) | TGI (UO-31 renal) | TGI (A549 NSCLC) | TGI (HCT-116 colon) | TGI (MOLT-4 leukemia) | TGI (CCRF-CEM leukemia) | TGI (HOP-62 NSCLC) | TGI (HOP-92 NSCLC) | TGI (SN12C renal) | TGI (M14 melanoma) | TGI (IGROV1 ovarian) | TGI (KM12 colon) | TGI (SK-MEL-5 melanoma) | TGI (NCI-H23 lung) | TGI (T-47D breast) | TGI (LOX IMVI melanoma) | TGI (SNB-19 CNS) | TGI (OVCAR-5 ovarian) | TGI (RPMI-8226 leukemia) | TGI (SR leukemia) | TGI (OVCAR-8 ovarian) | TGI (HCT-15 colon) | TGI (SF-268 CNS) | TGI (MCF7 breast) | TGI (CAKI-1 renal) | TGI (TK-10 renal) | TGI (DU-145 prostate) | TGI (U251 CNS) | TGI (HT29 colon) | TGI (K-562 leukemia) | TGI (BT-549 breast) | TGI (ACHN renal) | TGI (NCI-H460 lung) | TGI (SW-620 colon) | TGI (SK-MEL-2 melanoma)
> 93.1 µM: TGI (HCC-2998 colon)
> 23.5 µM: TGI (COLO 205 colon)
> 53.4 µM: TGI (SF-295 CNS)
2.07 µM: TGI (MDA-MB-435)
> 74.9 µM: TGI (HS 578T breast)
active: GI50 (MDA-MB-435) 0.362 µM
